# Data as given in publication PMC9894920, “Development of an improved and specific inhibitor of NADPH oxidase 2 to treat traumatic brain injury” (Redox Biology, 2023).
# Where two headings read alike, the source gives them in different places.
# Key:
# [1] = Aqueous kinetic solubility in PBS buffer; type: physicochemical
# Description: (§1) The rat liver microsomal stability, parallel artificial membrane permeability assay (PAMPA), and aqueous kinetic solubility assay in phosphate-buffered saline (PBS) buffer were performed as described in the indicated references.
# [2] = molecular target: T1, NOX2 (Homo sapiens, UniProt P04839); experiment: NOX2 activity in primary human granulocytes (PMN), luminol chemiluminescence; type: cell-based; design: When tested against NOX2 in primary human neutrophils; endogenous in cells; host or cells: primary human granulocytes (PMN) from donor blood; details: mean ± SD, n in cell; read-out: NOX-2 IC50 from PMN
# T1 sequence (P04839 2-570 limits assumed): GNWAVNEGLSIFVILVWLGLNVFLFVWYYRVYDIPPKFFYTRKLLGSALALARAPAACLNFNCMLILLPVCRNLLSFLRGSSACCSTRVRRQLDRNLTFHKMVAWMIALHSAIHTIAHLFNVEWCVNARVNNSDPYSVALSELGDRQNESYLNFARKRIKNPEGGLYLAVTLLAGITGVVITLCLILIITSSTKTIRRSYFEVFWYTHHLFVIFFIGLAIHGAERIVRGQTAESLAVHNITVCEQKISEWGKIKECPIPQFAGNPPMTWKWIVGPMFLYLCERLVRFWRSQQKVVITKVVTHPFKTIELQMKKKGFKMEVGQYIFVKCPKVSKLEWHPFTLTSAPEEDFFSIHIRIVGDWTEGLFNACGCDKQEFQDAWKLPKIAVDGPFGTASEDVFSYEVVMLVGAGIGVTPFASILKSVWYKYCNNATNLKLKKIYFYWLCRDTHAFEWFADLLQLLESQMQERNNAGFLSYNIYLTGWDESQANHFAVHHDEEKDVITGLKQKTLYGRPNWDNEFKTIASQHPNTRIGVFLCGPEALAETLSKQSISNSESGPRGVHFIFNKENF
# T1 sequence (P13498 2-195 partner limits assumed): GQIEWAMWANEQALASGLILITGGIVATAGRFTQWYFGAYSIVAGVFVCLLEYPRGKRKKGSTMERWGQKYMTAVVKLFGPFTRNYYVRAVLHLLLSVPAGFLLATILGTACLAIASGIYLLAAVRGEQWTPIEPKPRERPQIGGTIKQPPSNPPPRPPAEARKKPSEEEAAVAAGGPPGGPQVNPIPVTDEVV
# Description: Human blood was obtained after informed consent by the Department of Transfusion Medicine (NIH Clinical Center) and provided as de-identified specimens. Human granulocytes were isolated using Percoll density fractionation as described and NOX2 activity was assessed in white polypropylene flat bottom 96 well plates following 15 min of preincubation at 37 °C with compounds or vehicle controls using 50 μM luminol as a chemiluminescence enhancer in an assay volume of 100 μl RPMI1640 with 1.1 × 10^5 cells/well in Varioskan Lux luminometer for 30 cycles of 1 s per well (approximately 1 h).
# [3] = Rat liver microsomal stability; type: in vitro ADME; details: for half-life: SD, rat, liver microsomes, read-out: Rat_SD/Microsomes t1/2 (m)
# Description: as §1
# [4] = molecular target: T2, Bovine Xanthine Oxidase (Bos taurus, UniProt P80457); experiment: Xanthine oxidase / hypoxanthine luminol chemiluminescence assay; type: biochemical; details: xanthine oxidase with hypoxanthine; mean ± SD, n in cell; read-out: X/XO IC50
# T2 construct: purchased Sigma
# Description: Bovine Xanthine Oxidase (Sigma) was dialyzed in PBS to remove ammonium sulfate and stored at 4 °C. Hypoxanthine was prepared by heating in DMSO. Reactions were prepared by diluting xanthine oxidase in HBSS (final concentration 1.25 mU/mL) that contained 50 μM luminol and were preincubated 5 min with control or inhibitor before the addition of hypoxanthine at a final concentration of 0.5 mM. Luminescence was measured at 24 °C as described above.
# [5] = Parallel artificial membrane permeability assay (PAMPA); type: in vitro ADME; details: for Papp: pH 7.4, PAMPA, pH7.4, read-out: Permeability(pH7.4) (PAMPA_Pion_Lipid 1e-6 cm/s)
# Description: as §1
# [6] = aqueous buffer, kinetic from dmso stock, read-out: Solubility
# T2 sequence (P80457 whole entry): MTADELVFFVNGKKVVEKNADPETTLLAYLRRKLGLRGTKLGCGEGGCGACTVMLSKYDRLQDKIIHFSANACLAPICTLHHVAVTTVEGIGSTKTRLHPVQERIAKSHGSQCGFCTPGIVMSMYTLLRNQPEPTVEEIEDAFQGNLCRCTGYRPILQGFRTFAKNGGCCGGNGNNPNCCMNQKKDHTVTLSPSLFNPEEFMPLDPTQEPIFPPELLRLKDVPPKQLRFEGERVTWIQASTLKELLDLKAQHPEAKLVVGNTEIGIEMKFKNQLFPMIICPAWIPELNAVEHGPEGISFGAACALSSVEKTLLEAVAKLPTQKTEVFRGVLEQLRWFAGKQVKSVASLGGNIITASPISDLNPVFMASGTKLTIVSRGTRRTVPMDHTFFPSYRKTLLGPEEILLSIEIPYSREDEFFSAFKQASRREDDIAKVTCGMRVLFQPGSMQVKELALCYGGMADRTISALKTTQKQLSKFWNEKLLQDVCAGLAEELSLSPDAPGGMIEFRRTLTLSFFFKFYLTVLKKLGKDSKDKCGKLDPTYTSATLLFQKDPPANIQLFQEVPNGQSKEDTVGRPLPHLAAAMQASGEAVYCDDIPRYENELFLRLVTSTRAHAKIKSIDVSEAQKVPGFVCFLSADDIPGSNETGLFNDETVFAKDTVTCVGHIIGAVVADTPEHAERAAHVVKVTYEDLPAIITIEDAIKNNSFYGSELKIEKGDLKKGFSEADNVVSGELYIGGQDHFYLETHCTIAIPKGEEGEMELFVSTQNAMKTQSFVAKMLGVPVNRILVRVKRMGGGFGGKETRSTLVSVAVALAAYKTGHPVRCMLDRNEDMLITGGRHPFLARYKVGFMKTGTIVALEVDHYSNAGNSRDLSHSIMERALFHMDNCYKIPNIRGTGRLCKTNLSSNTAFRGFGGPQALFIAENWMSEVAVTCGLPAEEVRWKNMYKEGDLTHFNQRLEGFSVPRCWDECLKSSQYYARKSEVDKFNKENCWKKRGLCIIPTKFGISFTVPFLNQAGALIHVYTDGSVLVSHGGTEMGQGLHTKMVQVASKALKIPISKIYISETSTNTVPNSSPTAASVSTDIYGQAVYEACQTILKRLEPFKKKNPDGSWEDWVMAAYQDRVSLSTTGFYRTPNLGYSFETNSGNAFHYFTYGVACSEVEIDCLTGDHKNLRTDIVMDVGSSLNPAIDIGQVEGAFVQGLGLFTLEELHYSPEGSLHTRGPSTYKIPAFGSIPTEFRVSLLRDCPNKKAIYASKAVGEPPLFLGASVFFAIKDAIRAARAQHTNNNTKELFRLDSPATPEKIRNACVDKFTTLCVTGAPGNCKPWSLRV
smiles,measurement,setting,value
"Cn1ccc([S+](=O)([O-])Nc2ccnc3c2c(-c2ccc4c(c2)C(=O)CC4)cn3C2CC2)n1 [NCGC00650062, CN1C=CC(=N1)[S+]([O-])(=O)NC2=C3C(=CN(C4CC4)C3=NC=C2)C5=CC6=C(CCC6=O)C=C5]",solubility,[1],0.0386 mg/mL
same,IC50,[2],> 20 µM
same,Rat_SD/Microsomes t1/2 (m),[3],17.3 m
same,IC50,[4],3.11 µM
same,Permeability(pH7.4) (PAMPA_Pion_Lipid 1e-6 cm/s),[5],88.1 1e-6 cm/s
"Cn1ccc([S+](=O)([O-])Nc2ccnc3c2c(-c2ccc4c(c2)NCC4)cn3C2CC2)n1 [NCGC00601851, CN1C=CC(=N1)[S+]([O-])(=O)NC2=C3C(=CN(C4CC4)C3=NC=C2)C5=CC6=C(CCN6)C=C5]",solubility,[1]; [6],> 0.064 mg/mL
same,IC50,[2],1.53 ± 1.36 µM
same,half-life,[3],4.5 min
same,IC50,[4],7.52 ± 10.5 µM
same,Papp,[5],1910 nm/s
"CC(n1cc(-c2ccc3ccn(C)c3c2)c2c(N[S+](=O)([O-])c3ccn(C)n3)ccnc21)C(F)(F)F (centres unmarked) [NCGC00600714, CC(N1C=C(C2=C(N[S+]([O-])(=O)C3=NN(C)C=C3)C=CN=C12)C4=CC5=C(C=CN5C)C=C4)C(F)(F)F]",solubility,[1]; [6],< 0.001 mg/mL
same,IC50,[2],0.328 µM
same,half-life,[3],7.7 min
same,IC50,[4],4.7 µM
same,Papp,[5],4790 nm/s
"Cn1ccc([S+](=O)([O-])Nc2ccnc3c2c(-c2ccc4c(c2)C(O)CC4)cn3C2CC2)n1 (centres unmarked) [NCGC00650073, CN1C=CC(=N1)[S+]([O-])(=O)NC2=C3C(=CN(C4CC4)C3=NC=C2)C5=CC6=C(CCC6O)C=C5]",solubility,[1]; [6],0.0311 mg/mL
same,IC50,[2],> 20 µM
same,half-life,[3],18.2 min
same,IC50,[4],19 µM
same,Papp,[5],1820 nm/s
"O=C1CCc2ccc(-c3cn(C4CC4)c4nccc(N[S+](=O)([O-])c5ccn(C6CC6)n5)c34)cc21 [NCGC00650070, [O-][S+](=O)(NC1=C2C(=CN(C3CC3)C2=NC=C1)C4=CC5=C(CCC5=O)C=C4)C6=NN(C=C6)C7CC7]",solubility,[1]; [6],0.0385 mg/mL
same,IC50,[2],0.966 µM
same,half-life,[3],13.2 min
same,Papp,[5],2560 nm/s
"Cn1ccc([S+](=O)([O-])Nc2ccnc3c2c(-c2ccc4c(c2)C(NC(=O)OC(C)(C)C)CC4)cn3C2CC2)n1 (centres unmarked) [NCGC00650021, CN1C=CC(=N1)[S+]([O-])(=O)NC2=C3C(=CN(C4CC4)C3=NC=C2)C5=CC6=C(CCC6NC(=O)OC(C)(C)C)C=C5]",solubility,[1]; [6],0.0262 mg/mL
same,IC50,[2],2.42 µM
same,half-life,[3],5.7 min
same,IC50,[4],4.43 µM
same,Papp,[5],19400 nm/s
"Cn1ccc([S+](=O)([O-])Nc2ccnc3c2c(-c2ccc4c(c2)CCC4)cn3C2CC2)n1 [NCGC00650026, CN1C=CC(=N1)[S+]([O-])(=O)NC2=C3C(=CN(C4CC4)C3=NC=C2)C5=CC6=C(CCC6)C=C5]",solubility,[1]; [6],0.001 mg/mL
same,IC50,[2],3.1 ± 2.59 µM
same,half-life,[3],0.9 min
same,IC50,[4],> 20 µM
same,Papp,[5],14200 nm/s
"Cn1ccc([S+](=O)([O-])Nc2ccnc3c2c(-c2ccc4c(c2)N(C2CC2)CC4)cn3CC2CCCCC2)n1 [NCGC00650102, CN1C=CC(=N1)[S+]([O-])(=O)NC2=C3C(=CN(CC4CCCCC4)C3=NC=C2)C5=CC6=C(CCN6C7CC7)C=C5]",solubility,[1]; [6],0.0053 mg/mL
same,IC50,[2],2.05 µM
same,IC50,[4],4.07 ± 5.43 µM
same,Papp,[5],1600 nm/s
"Cn1ccc([S+](=O)([O-])Nc2ccnc3c2c(-c2ccc4ccn(C)c4c2)cn3C2CC2)n1 [NCGC00650045, CN1C=CC(=N1)[S+]([O-])(=O)NC2=C3C(=CN(C4CC4)C3=NC=C2)C5=CC6=C(C=CN6C)C=C5]",solubility,[1]; [6],0.0022 mg/mL
same,IC50,[2],> 20 µM
same,half-life,[3],1 min
"Cn1ccc([S+](=O)([O-])Nc2ccnc3c2c(-c2ccc4c(c2)N(C2CC2)CC4)cn3CC2CC2)n1 [NCGC00650063, CN1C=CC(=N1)[S+]([O-])(=O)NC2=C3C(=CN(CC4CC4)C3=NC=C2)C5=CC6=C(CCN6C7CC7)C=C5]",solubility,[1]; [6],0.0014 mg/mL
same,IC50,[2],3.02 ± 2.96 µM
same,half-life,[3],1.1 min
same,IC50,[4],0.36 ± 0.51 µM
same,Papp,[5],12300 nm/s
"CN(C)C1CCc2ccc(-c3cn(C4CC4)c4nccc(N[S+](=O)([O-])c5ccn(C)n5)c34)cc21 (centres unmarked) [NCGC00650075, CN(C)C1CCC2=C1C=C(C=C2)C3=CN(C4CC4)C5=NC=CC(N[S+]([O-])(=O)C6=NN(C)C=C6)=C35]",solubility,[1]; [6],0.0397 mg/mL
same,IC50,[2],0.0555 µM
same,half-life,[3],14 min
same,IC50,[4],3.2 µM
same,Papp,[5],2930 nm/s
"Cn1ccc([S+](=O)([O-])Nc2ccnc3c2c(-c2ccc4c(c2)N(C(=O)OC(C)(C)C)CC4)cn3C2CC2)n1 [NCGC00650103, CN1C=CC(=N1)[S+]([O-])(=O)NC2=C3C(=CN(C4CC4)C3=NC=C2)C5=CC6=C(CCN6C(=O)OC(C)(C)C)C=C5]",solubility,[1]; [6],0.0082 mg/mL
same,IC50,[2],3.93 µM
same,half-life,[3],4.6 min
same,IC50,[4],> 20 µM
"CN1CCc2ccc(-c3cn(C4CC4)c4nccc(N[S+](=O)([O-])c5ccn(C)n5)c34)cc21 [NCGC00600897, CN1C=CC(=N1)[S+]([O-])(=O)NC2=C3C(=CN(C4CC4)C3=NC=C2)C5=CC6=C(CCN6C)C=C5]",solubility,[1]; [6],> 0.066 mg/mL
same,half-life,[3],1.7 min
same,IC50,[4],1.38 ± 1.16 µM
same,Papp,[5],1710 nm/s
"CC(n1cc(-c2ccc3c(c2)N(C)CC3)c2c(N[S+](=O)([O-])c3ccn(C)n3)ccnc21)C(F)(F)F (centres unmarked) [NCGC00600887, CC(N1C=C(C2=C(N[S+]([O-])(=O)C3=NN(C)C=C3)C=CN=C12)C4=CC5=C(CCN5C)C=C4)C(F)(F)F]",solubility,[1]; [6],0.0219 mg/mL
same,IC50,[2],0.541 µM
same,half-life,[3],3.3 min
same,IC50,[4],0.872 µM
same,Papp,[5],6290 nm/s
"CC(C)n1cc(-c2ccc3c(c2)N(C)CC3)c2c(N[S+](=O)([O-])c3ccn(C)n3)ccnc21 [NCGC00507962, CC(C)[N]1C=C(C2=CC3=C(CCN3C)C=C2)C4=C(N[S+]([O-])(=O)C5=N[N](C)C=C5)C=CN=C14]",solubility,[1]; [6],0.0367 mg/mL
same,half-life,[3],1.1 min
same,Papp,[5],10300 nm/s
"Cn1ccc([S+](=O)([O-])Nc2ccnc3c2c(-c2ccc4c(c2)C(=O)CC4)cn3C2CC2)n1 [NCGC00650061, CN1C=CC(=N1)[S+]([O-])(=O)NC2=C3C(=CN(C4CC4)C3=NC=C2)C5=CC6=C(CCC6=O)C=C5]",solubility,[1]; [6],> 0.066 mg/mL
same,IC50,[2],4.25 µM
same,half-life,[3],11.8 min
same,IC50,[4],2.34 ± 2.32 µM
same,Papp,[5],728 nm/s
"O=C1CCc2ccc(-c3cn(C4CC4)c4nccc(N[S+](=O)([O-])c5ccn(C6CC6)n5)c34)cc21 [NCGC00650069, [O-][S+](=O)(NC1=C2C(=CN(C3CC3)C2=NC=C1)C4=CC5=C(CCC5=O)C=C4)C6=NN(C=C6)C7CC7]",solubility,[1],0.03 mg/mL
same,IC50,[2],1.78 µM
same,Rat_SD/Microsomes t1/2 (m),[3],16 m
same,Permeability(pH7.4) (PAMPA_Pion_Lipid 1e-6 cm/s),[5],188.5 1e-6 cm/s
"Cn1ccc([S+](=O)([O-])Nc2ccnc3c2c(-c2ccc4c(c2)N(C2CC2)C(=O)C42CC2)cn3C2CC2)n1 [NCGC00650040, CN1C=CC(=N1)[S+]([O-])(=O)NC2=C3C(=CN(C4CC4)C3=NC=C2)C5=CC6=C(C=C5)C7(CC7)C(=O)N6C8CC8]",solubility,[1]; [6],0.0229 mg/mL
same,IC50,[2],15.2 µM
same,half-life,[3],> 30 min
same,IC50,[4],4.21 ± 0.55 µM
same,Papp,[5],2490 nm/s
"O=C1N(C2CC2)c2cc(-c3cn(C4CC4)c4nccc(N[S+](=O)([O-])c5ccn(C6CC6)n5)c34)ccc2C12CC2 [NCGC00650041, [O-][S+](=O)(NC1=C2C(=CN(C3CC3)C2=NC=C1)C4=CC5=C(C=C4)C6(CC6)C(=O)N5C7CC7)C8=NN(C=C8)C9CC9]",solubility,[1]; [6],0.002 mg/mL
same,half-life,[3],6.2 min
same,IC50,[4],0.18 µM
same,Papp,[5],6150 nm/s
"O=[S+]([O-])(Nc1ccnc2c1c(-c1ccc3c(c1)C(O)CC3)cn2C1CC1)c1ccn(C2CC2)n1 (centres unmarked) [NCGC00650064, OC1CCC2=C1C=C(C=C2)C3=CN(C4CC4)C5=NC=CC(N[S+]([O-])(=O)C6=NN(C=C6)C7CC7)=C35]",solubility,[1]; [6],0.0359 mg/mL
same,half-life,[3],6.9 min
same,IC50,[4],> 20 µM
same,Papp,[5],3860 nm/s
